The values below come from a melting point compilation (Tetko et al.).

Consider `N#Cc1cc2ccccc2c2ccccc12`, for which the melting point – broadly, the temperature, or range, at which the solid turns liquid – turned out to be 111 °C. On to `Oc1ccc(C#Cc2ccc(F)cc2)cc1`, for which the melting point came to 149 °C.

`OC1c2ccccc2CCc2ccccc21` showed a melting point of 92 °C. On to `COc1ccc(Nc2nc(N)nnc2-c2ccccc2)cc1`, for which the melting point was found to be 293 °C. The compound `CCOC(=O)C1=C(C)NC(=O)NC1c1ccc(Cl)cc1` (centres undefined) registered a melting point of 185 °C.

Turning to `CCCCCCCCCCCCCCCC(CCCC)c1ccccc1` (centres undefined), the melting point was found to be 30.2 °C. As for `CNC(=O)Oc1cc(C)c(N(C)C)c(C)c1`, the melting point came to 85 °C.

`O=C(C1=NOC2C(=O)N(c3ccc(Br)cc3)C(=O)C12)c1ccco1` (centres undefined) gave a melting point of 176 °C. In turn, `Cc1c(Cl)ccc(O)c1Cl` gave a melting point of 58 °C. Then `O=C(O)CCCCCCCCCCCO`, with 86.5 °C. Regarding `O=C(O)C(O)c1ccc(Cl)cc1` (centres undefined), the melting point was 120 °C. The compound `c1ccc(-c2ccc(-c3cnc(-c4ccc(-c5ccccc5)cc4)o3)cc2)cc1` had a melting point of 239 °C. In the case of `C=COC(C)(C)C`, the melting point was -112 °C. `CC1=CCC2CC1C2(C)C` (racemic) had a melting point of -55 °C.

Take `CC(CCc1ccccc1)NC(C)C(O)c1ccc(O)cc1` (centres undefined): the melting point is 112 °C.

`O=C(O)C=Cc1ccc(N2CCCC2)c([N+](=O)[O-])c1`: the melting point is 243 to 245 °C. Next, `C=CCN=C(NCC=C)c1cc(C(C)(C)C)c(O)c(C(C)(C)C)c1`: 201 to 202 °C. Then `NC(=O)C(F)(Br)C(F)(F)F` (centres undefined), with 83 to 84 °C; and `O=C=Nc1ccc(-c2ncccn2)cc1`, with 85.5 to 87.5 °C; and `CC(=O)O[C@H](c1ccccc1)C(O)(c1ccccc1)c1ccccc1`, with 248 to 252 °C. The compound `Cc1cc(=O)n(-c2ccccc2)n1C` yielded a melting point of 114 °C. Next, `COc1ccc(C2C(C#N)=C(N)Oc3[nH]nc(C(F)(F)F)c32)cc1` (centres undefined): 204 °C; `CCCCCCCCCCCCCCCCCCCCCCCCO`: 75 to 77 °C; `O=C1/C(=C/c2ccc([N+](=O)[O-])cc2)SC(=S)N1CN(CCCl)CCCl`: 284 °C. Compound `CC(=O)c1cc(-c2ccc(Cl)c(Cl)c2)no1` returned a melting point of 130 to 132 °C. `N#CC1=C(N)Oc2[nH]nc(C(F)(F)F)c2C1c1ccc(O)cc1` (centres undefined) registered a melting point of 197 °C.

As for `O=C(ON1C(=O)CCC1=O)ON1C(=O)CCC1=O`, the melting point came to 190 °C. Next, `O=[N+]([O-])c1cc([N+](=O)[O-])cc(C(F)(F)F)c1`: 51 °C; `O=S(=O)(Cl)c1cccc(Br)c1`: 32 °C; `NC(=O)NNC(N)=O`: 247 to 250 °C.

Compound `N#Cc1c2ccccc2c(C#N)c2ccccc12` displayed a melting point of 337 °C. Then `CC1CCCC(=O)C1` (centres undefined), with -73 °C; and `Cc1cc2c(o1)-c1c(oc3ccc(Cl)cc13)CCC2(C)c1ccccc1` (centres undefined), with 128 °C. In turn, `CCOC(=O)c1cn2ccsc2n1` came in with a melting point of 87 to 91 °C. Then `Oc1c(F)c(F)c2c(F)c(F)c(F)c(F)c2c1F`, with 120 to 124 °C. `c1cc2cc3ccc4c(c3nc2c2c1NCOC2)COCN4`: the melting point is 235 °C.

The compound `O=Cc1ccc(Cl)cc1F` yielded a melting point of 59 °C. For `CO[C@]12C(=O)CCc3cccc(c31)Oc1ccc3ccccc3c12`, the melting point is 154 °C. In turn, `COc1c(Cl)c(C)c2c(c1Cl)OC(=O)c1c(C)c(Cl)c(O)c(Cl)c1O2` displayed a melting point of 232 °C. `CC(=O)OC1(C)Cc2c(C)c(C)c(C)c(C)c21` (centres undefined) displayed a melting point of 70 °C. The compound `CCCc1cccc(C)c1` gave a melting point of -82.5 °C. As for `Cc1cc(C)c(O)cc1O`, the melting point was found to be 126 °C. Turning to `COc1cccc(Br)c1O`, the melting point was 64 °C. Compound `O=C(/C=C/c1ccc(OCCCCl)cc1)c1ccccc1` returned a melting point of 74 °C. Regarding `Cn1ccccc1=S`, the melting point was 89.5 °C. Consider `O=C(c1ccc([N+](=O)[O-])cc1)c1noc(-c2ccc(Cl)cc2)c1S(=O)(=O)c1ccccc1`, for which the melting point is 210 °C. Consider `Nc1ccccc1C(=O)Nc1ccccc1`, for which the melting point is 132 °C. On to `CC(C)(C(=O)O)C1=CCC2(C)C(CCC3C4CCC(O)C4(C)CCC32)C1` (centres undefined), for which the melting point was found to be 264 °C. In the case of `O=[N+]([O-])c1ccccc1OC1OC(CO)C(O)C(O)C1O` (centres undefined), the melting point amounted to 195 °C.

For the compound `COc1ccc2nonc2c1`, the melting point was 99 to 102 °C. `Oc1cc2c(cc1O)Cc1cc(O)c(O)cc1Cc1cc(O)c(O)cc1C2` registered a melting point of 287 to 289 °C. In the case of `CC(CC(N)C(=O)O)C(F)(F)F` (racemic), the melting point was in the range of 273 to 275 °C. As for `Cc1cc(C(=O)O)n(C)n1`, the melting point was 209 to 211 °C.

In turn, `Nc1ccccc1-c1ccccc1N` gave a melting point of 81 °C. Consider `Cn1nc(-c2cccs2)cc1C(=O)O`, for which the melting point fell in the range of 173 to 174 °C. For `CC1(C)OC(=O)C(=NNc2ccc(O)cc2)C(=O)O1`, the melting point worked out at 238 °C. In turn, `O/N=C(/C=Cc1ccccc1)c1ccccc1` had a melting point of 115 to 116 °C. Compound `CCc1ccnc(N)c1` registered a melting point of 67 °C. On to `Nc1ccc(C2SCCS2)cc1`, for which the melting point lay within 57 to 59 °C. In turn, `CC1(N)CCC(C(C)(C)N)CC1` (centres undefined) registered a melting point of -45 °C. Compound `c1ccc(CNCc2ccccc2)cc1` yielded a melting point of -26 °C.

Consider `Brc1ccc2c(c1)OCCOCCOCCOCCOCCO2`, for which the melting point is 79 to 83 °C. `CC/C=C/C(=O)O` came in with a melting point of 9 °C.

Regarding `NCCNC(=O)C(=O)NCc1ccccn1`, the melting point is 257 °C. For the compound `Cc1ccc([N+](=O)[O-])cc1F`, the melting point came to 35 °C. On to `Cn1nc(C(=O)Cl)cc1-c1cccs1`, for which the melting point was 48 to 49 °C. As for `NNC(=O)c1ccncc1`, the melting point stood at 171 °C. For the compound `N#CC(=O)c1ccccc1`, the melting point came to 32.5 °C. Next, `O=C(O)CCCOc1ccc(Cl)cc1Cl`: 118 °C; `NC(=O)c1cccc(Cl)c1Cl`: 170 to 172 °C. The compound `O=C1C=C(NCCCc2ccccc2)C(=O)c2ccccc21` registered a melting point of 116 °C. In turn, `Nc1ccc2ccccc2c1N=Nc1ccccc1` had a melting point of 103 °C. Then `O=C=NCCCCCCN=C=O`, with -67 °C. The compound `Oc1cc(-c2ccccc2)c2cc(Br)cc(Br)c2n1` yielded a melting point of 210 to 211 °C.

`O=C1[C@H]2CC3=C(CC=CC3)C[C@H]2C(=O)[C@H]2CC3=C(CC=CC3)C[C@@H]12`: the melting point lay in the range of 300 to 302 °C. Then `S=c1oc2ccccc2n1CN1CCCCC1`, with 255 °C; and `O=Cc1cc(Cl)cc(Cl)c1O`, with 96 °C; and `Nc1cccc(-c2cncnc2)c1`, with 163 to 166 °C. With `O=C(O)C=Cc1cc(Br)ccc1F`, the melting point is 195 to 199 °C. With `CCOC(=O)c1c(NC(=O)Nc2cccc(Cl)c2)sc2c1CCCC2`, the melting point was 164 to 165 °C.

Regarding `COC(=O)C1=C(C)NC(=S)NC1c1ccccc1` (centres undefined), the melting point lay within 224 to 225 °C.

For `CC(C)(C)N(NC(=O)c1ccccc1)C(=O)c1c(F)cccc1Cl`, the melting point was 210 °C. Next, `COc1ccccc1C(=O)N(NC(=O)c1ccccc1)C(C)(C)C`: 182 °C; `CC1(c2ccccc2)CC(C(=NO)c2cc3ccccc3o2)C1` (centres undefined): 200 to 201 °C.

The compound `Clc1nc2ccccc2s1` had a melting point of 31.5 °C. Then `N#CCCP(CCC#N)CCC#N`, with 98 °C; and `O=C(O)Cc1ccc(F)c(Cl)c1`, with 57 °C; and `Cn1cnc([N+](=O)[O-])c1Sc1ncnc2nc[nH]c12`, with 244 °C. `O=C1/C(=N/Nc2ccc(Cl)cc2)C(C(F)(F)F)=NN1c1ccccc1` returned a melting point of 180 °C.

With `O=C(O)c1ccc(-c2ccco2)cc1`, the melting point was in the range of 231 to 232 °C. On to `Cc1nc(-c2ccc(N)cc2)no1`, for which the melting point lay in the range of 113 to 114 °C.

In turn, `CC(=O)Nc1cc(NC(C)=O)c([N+](=O)[O-])cc1[N+](=O)[O-]` showed a melting point of 247 to 248 °C.

Consider `CSc1nc(=O)n(C)c2c1CCC2`, for which the melting point fell in the range of 145 to 146 °C.

Turning to `CC(C)(C)N(NC(=O)c1ccccc1)C(=O)c1cc(F)c(F)c(F)c1F`, the melting point came to 158 °C. In the case of `CCOC(=O)C1=C(C)NC(=O)NC1c1ccc2c(c1)OCO2` (centres undefined), the melting point is 189 °C. `CC(NC(=O)c1ccccc1)C(=O)O` (racemic) came in with a melting point of 166 °C. Consider `Cc1ccc(S(=O)(=O)NN=Cc2coc(C=Cc3ccccc3)n2)cc1`, for which the melting point was in the range of 177 to 179 °C. Consider `Cc1ccc(C(c2ccc(C)o2)c2cc(Br)cc(C)c2O)o1`, for which the melting point fell in the range of 198 to 199 °C. Next, `CC(=O)N1N=C(c2ccc3ccccc3c2)CC1c1ccccc1Cl` (centres undefined): 173 °C; `CCOC(=O)C(CCc1ccccc1)NC(C)C(=O)N1Cc2ccccc2CC1C(=O)O` (centres undefined): 125 °C.

With `O=[N+]([O-])c1cc(C(O)Cc2ccc3ccccc3n2)ccc1C(O)Cc1ccc2ccccc2n1` (centres undefined), the melting point worked out at 172 °C. For the compound `CCCCCOC(=O)C1=C(C)NC(=O)NC1c1ccco1` (centres undefined), the melting point was 166 to 167 °C. `S=C1NCCCN1` had a melting point of 211 °C. Then `CC(C)Nc1cccnc1N1CCN(C(=O)c2cc3cc(NS(C)(=O)=O)ccc3[nH]2)CC1`, with 226 °C; and `COc1ccc(Cl)cc1I`, with 48 °C.

`CCC1(C)CC(=O)NC(=O)C1` gave a melting point of 126 °C.

For `COC=C(C(=O)OC)C(=O)OC`, the melting point was 43 °C. Then `O=C(O)COC(=O)Cc1ccccc1Nc1c(Cl)cccc1Cl`, with 149 °C.

For `NNC(=O)C(O)c1ccccc1` (centres undefined), the melting point is 130 °C.
